Data taken from patent US20240108602A1, “TREATMENT OF MENTAL DISORDERS” (GH Research Ireland Limited, priority 2022, published 2024).

Tested on: patients with postpartum depression (PPD)
Test: Clinical trial of inhaled 5-MeO-DMT (IDR) in patients with postpartum depression
Experimental: The single-arm, open-label clinical trial will involve 15 adult female patients with clinically diagnosed postpartum depression (PPD).
The second dose (12 mg) will only be administered if: • a. A peak experience (total score of ≥75) has not been achieved following the 6 mg dose, and • b. The 6 mg dose was safe and well-tolerated according to the investigator, • c. Any psychoactive effects (PsE) of the prior dose have subsided, and • d. Pre-dose vital parameters and forced expiratory volume in one second (FEV1) are in normal range, or if outside of the normal range, are not clinically significant according to the investigator. • 3. Similarly, a third dose (18 mg) will only be administered if: • a. A peak experience (total score of ≥75) has not been achieved following the 12 mg dose, and • b. The 12 mg dose was safe and well-tolerated according to the investigator, and • c. Any PsE of the prior dose have subsided, and • d. Pre-dose vital parameters and forced expiratory volume in one second (FEV1) are in normal range, or if outside of the normal range, are not clinically significant according to the investigator.
The patients will be assessed for a peak psychedelic experience (based on a patient-scored visual analogue scale, the PE scale), sedation, and other endpoints after dosing.
Follow-up visits are planned for Day 1, and Day 7 after the dosing day.
The following criteria must be met by all patients considered for clinical trial participation: • 1. Is female and in the age range between 18 and 45 years (inclusive) at screening. • 2. Has a body mass index (BMI) in the range of 18.5 and 35 kg/m^2 (inclusive) at screening. • 3. Meets the trial criteria for PPD as assessed by a trial psychiatrist or registered psychologist: • a. Diagnosis of Major Depressive Disorder without psychotic features, confirmed by the Mini-International Neuropsychiatric Interview (MINI), with peri-partum onset that began no earlier than gestation and no later than the first 4 weeks postpartum. • b. Has a Montgomery-Åsberg Depression Rating Scale (MADRS) total score of equal to or greater than 28 at screening and pre-dose on Day 0. • 6. […] Patients must have a negative pregnancy test at screening and on the pre-test day (Day−1). • 5. Is willing to delay start of other antidepressant or anxiety medication until after the end of the trial at Day 7 and agrees to keep any psychotherapy unchanged during the trial.

Compound: COc1ccc2[nH]cc(CCN(C)C)c2c1 [5-MeO-DMT]
- BIMF item 12 (taking good care of my baby's physical needs) score (PPD patient 1, Day 7): 6
- BIMF item 12 Δ vs Day 0 (PPD patient 1, Day 7): 0
- BIMF item 13 (taking good care of my physical needs) score (PPD patient 1, Day 7): 5
- BIMF item 13 Δ vs Day 0 (PPD patient 1, Day 7): 1
- BIMF item 14 (good decisions about my baby's health and well being) score (PPD patient 1, Day 7): 6
- BIMF item 14 Δ vs Day 0 (PPD patient 1, Day 7): 0
- BIMF item 15 (My baby and I are getting into a routine) score (PPD patient 1, Day 7): 6
- BIMF item 15 Δ vs Day 0 (PPD patient 1, Day 7): 1
- BIMF item 16 (I worry about how other people judge me) score (PPD patient 1, Day 7): 5
- BIMF item 16 Δ vs Day 0 (PPD patient 1, Day 7): 2
- BIMF item 17 (able to take care of my baby and my other responsibilities) score (PPD patient 1, Day 7): 5
- BIMF item 17 Δ vs Day 0 (PPD patient 1, Day 7): 0
- BIMF item 18 (Anxiety or worry often interferes with my mothering ability) score (PPD patient 1, Day 7): 5
- BIMF item 18 Δ vs Day 0 (PPD patient 1, Day 7): 3
- BIMF item 19 (getting better at taking care of my baby) score (PPD patient 1, Day 7): 1
- BIMF item 19 Δ vs Day 0 (PPD patient 1, Day 7): 1
- BIMF item 20 (satisfied with the job I am doing as a new mother) score (PPD patient 1, Day 7): 5
- BIMF item 20 Δ vs Day 0 (PPD patient 1, Day 7): −1
- BPRS Anxiety improvement (PPD patient 1, Day 7): 6
- BPRS Anxiety score (PPD patient 1, Day 7): 1
- BPRS Blunted affect improvement (PPD patient 1, Day 7): 0
- BPRS Blunted affect score (PPD patient 1, Day 7): 1
- BPRS Conceptual disorganization improvement (PPD patient 1, Day 7): 0
- BPRS Conceptual disorganization score (PPD patient 1, Day 7): 1
- BPRS Depressive Mood improvement (PPD patient 1, Day 7): 5
- BPRS Depressive Mood score (PPD patient 1, Day 7): 1
- BPRS Disorientation improvement (PPD patient 1, Day 7): 0
- BPRS Disorientation score (PPD patient 1, Day 7): 1
- BPRS Emotional withdrawal improvement (PPD patient 1, Day 7): 4
- BPRS Emotional withdrawal score (PPD patient 1, Day 7): 1
- BPRS Excitement improvement (PPD patient 1, Day 7): 1
- BPRS Excitement score (PPD patient 1, Day 7): 1
- BPRS Grandiosity improvement (PPD patient 1, Day 7): 0
- BPRS Grandiosity score (PPD patient 1, Day 7): 1
- BPRS Guilt feelings improvement (PPD patient 1, Day 7): 5
- BPRS Guilt feelings score (PPD patient 1, Day 7): 1
- BPRS Hallucinatory behaviour improvement (PPD patient 1, Day 7): 0
- BPRS Hallucinatory behaviour score (PPD patient 1, Day 7): 1
- BPRS Hostility improvement (PPD patient 1, Day 7): 0
- BPRS Hostility score (PPD patient 1, Day 7): 1
- BPRS Mannerisms and Posturing improvement (PPD patient 1, Day 7): 0
- BPRS Mannerisms and Posturing score (PPD patient 1, Day 7): 1
- BPRS Motor retardation improvement (PPD patient 1, Day 7): 0
- BPRS Motor retardation score (PPD patient 1, Day 7): 1
- BPRS Somatic Concern improvement (PPD patient 1, Day 7): 5
- BPRS Somatic Concern score (PPD patient 1, Day 7): 1
- BPRS Suspiciousness improvement (PPD patient 1, Day 7): 0
- BPRS Suspiciousness score (PPD patient 1, Day 7): 1
- BPRS Tension improvement (PPD patient 1, Day 7): 5
- BPRS Tension score (PPD patient 1, Day 7): 1
- BPRS Uncooperativeness improvement (PPD patient 1, Day 7): 0
- BPRS Uncooperativeness score (PPD patient 1, Day 7): 1
- BPRS Unusual Thought Content improvement (PPD patient 1, Day 7): 0
- BPRS Unusual Thought Content score (PPD patient 1, Day 7): 1
- MADRS Apparent sadness improvement (PPD patient 1, Day 7): 5
- MADRS Apparent sadness score (PPD patient 1, Day 7): 0
- MADRS Concentration Difficulties improvement (PPD patient 1, Day 7): 0
- MADRS Concentration Difficulties score (PPD patient 1, Day 7): 0
- MADRS Inability to Feel improvement (PPD patient 1, Day 7): 3
- MADRS Inability to Feel score (PPD patient 1, Day 7): 0
- MADRS Inner Tension improvement (PPD patient 1, Day 7): 4
- MADRS Inner Tension score (PPD patient 1, Day 7): 1
- MADRS Lassitude improvement (PPD patient 1, Day 7): 3
- MADRS Lassitude score (PPD patient 1, Day 7): 0
- MADRS Pessimistic Thoughts improvement (PPD patient 1, Day 7): 4
- MADRS Pessimistic Thoughts score (PPD patient 1, Day 7): 0
- MADRS Reduced Sleep improvement (PPD patient 1, Day 7): 5
- MADRS Reduced Sleep score (PPD patient 1, Day 7): 0
- MADRS Reduced appetite improvement (PPD patient 1, Day 7): 0
- MADRS Reduced appetite score (PPD patient 1, Day 7): 0
- MADRS Reported sadness improvement (PPD patient 1, Day 7): 4
- MADRS Reported sadness score (PPD patient 1, Day 7): 0
- MADRS Suicidal Thoughts improvement (PPD patient 1, Day 7): 0
- MADRS Suicidal Thoughts score (PPD patient 1, Day 7): 0
- Total MADRS improvement (PPD patient 1, Day 7): 28
- Total MADRS score (PPD patient 1, Day 7): 1
- BIMF total score improvement (PPD patient 1, Day 7, from 92 to 105): 14%
- BPRS Anxiety improvement (PPD patient 1, Discharge): 6
- BPRS Anxiety score (PPD patient 1, Discharge): 1
- BPRS Blunted affect improvement (PPD patient 1, Discharge): 0
- BPRS Blunted affect score (PPD patient 1, Discharge): 1
- BPRS Conceptual disorganization improvement (PPD patient 1, Discharge): 0
- BPRS Conceptual disorganization score (PPD patient 1, Discharge): 1
- BPRS Depressive Mood improvement (PPD patient 1, Discharge): 5
- BPRS Depressive Mood score (PPD patient 1, Discharge): 1
- BPRS Disorientation improvement (PPD patient 1, Discharge): 0
- BPRS Disorientation score (PPD patient 1, Discharge): 1
- BPRS Emotional withdrawal improvement (PPD patient 1, Discharge): 4
- BPRS Emotional withdrawal score (PPD patient 1, Discharge): 1
- BPRS Excitement improvement (PPD patient 1, Discharge): 1
- BPRS Excitement score (PPD patient 1, Discharge): 1
- BPRS Grandiosity improvement (PPD patient 1, Discharge): 0
- BPRS Grandiosity score (PPD patient 1, Discharge): 1
- BPRS Guilt feelings improvement (PPD patient 1, Discharge): 5
- BPRS Guilt feelings score (PPD patient 1, Discharge): 1
- BPRS Hallucinatory behaviour improvement (PPD patient 1, Discharge): 0
- BPRS Hallucinatory behaviour score (PPD patient 1, Discharge): 1
- BPRS Hostility improvement (PPD patient 1, Discharge): 0
- BPRS Hostility score (PPD patient 1, Discharge): 1
- BPRS Mannerisms and Posturing improvement (PPD patient 1, Discharge): 0
- BPRS Mannerisms and Posturing score (PPD patient 1, Discharge): 1
- BPRS Motor retardation improvement (PPD patient 1, Discharge): 0
- BPRS Motor retardation score (PPD patient 1, Discharge): 1
- BPRS Somatic Concern improvement (PPD patient 1, Discharge): 5
- BPRS Somatic Concern score (PPD patient 1, Discharge): 1
- BPRS Suspiciousness improvement (PPD patient 1, Discharge): 0
- BPRS Suspiciousness score (PPD patient 1, Discharge): 1
- BPRS Tension improvement (PPD patient 1, Discharge): 5
- BPRS Tension score (PPD patient 1, Discharge): 1
- BPRS Uncooperativeness improvement (PPD patient 1, Discharge): 0
- BPRS Uncooperativeness score (PPD patient 1, Discharge): 1
- BPRS Unusual Thought Content improvement (PPD patient 1, Discharge): 0
- BPRS Unusual Thought Content score (PPD patient 1, Discharge): 1
- time to clinical remission after administration (PPD patient 1, IDR 6 mg then 12 mg): ≤ 2 h
- PES score (intensity of psychedelic experience) (PPD patient 1, nominal dose 6 mg): 17.3
- changes in vital parameters (PPD patient 1, shortly after administration): temporary, clinically non-relevant increase in heart rate and blood pressure
- PES score (intensity of psychedelic experience) (PPD patient 1, subsequent dose 12 mg): 85.7
- ECG, safety laboratory analyses, CADSS (PPD patient 2): unremarkable
- MADRS response (at least 50% improvement) and MADRS remission (total score 10 or less) (PPD patient 2): fulfilled standard criteria
- reported adverse events (mild, resolved spontaneously) (PPD patient 2): vomiting on Day 0 and headache on Day 5
- PES score (intensity of psychedelic experience) (PPD patient 2, nominal dose 6 mg): 1
- changes in vital parameters (PPD patient 2, shortly after administration): temporary, clinically non-relevant increase in heart rate
- PES score (intensity of psychedelic experience) (PPD patient 2, subsequent dose 12 mg): 94.7
